From patent publication US20170143701A1, “CARBOHYDRATE METABOLISM-AMELIORATING AGENT” (SUNTORY HOLDINGS LIMITED, priority 2014, published 2017)

Tested on: C57/BL6J mice
Assay: In vivo plasma GLP-1 level-increasing action: plasma active GLP-1 level (ELISA) after oral administration
Conditions: 10 mg/kg oral; for Significant difference (p < 0.05) vs control group, plasma active GLP-1 level: 30 minutes, Student's t-test; for Plasma active GLP-1 level (relative value to control group as 100), average value: blood 30 minutes after, 0.5% CMC-Na group = 100
Method: Seven-week-old male C57/BL6J mice were purchased from CLEA Japan, Inc. for use, and they were subjected to an experiment after 1 week of a habituation period.
After the habituation period, the mice were subjected to 5.5 hours of food deprivation and 2 hours of water deprivation. Thereafter, a cyclic dipeptide dissolved or suspended in a 0.5% CMC-Na aqueous solution in 10 mg/kg was orally administered to each mouse forcibly. After 30 minutes, the blood was collected from the abdominal vena cava under anesthesia, and 1 μL of heparin sodium and 1 μL of 10 mM Sitagliptin phosphate were added to each collected blood, which was then subjected to centrifugation at 8000 rpm for 10 minutes to recover the plasma, and the plasma active GLP-1 level was measured by using the ELISA kit. In the analysis, the active GLP-1 level for a group administered with 0.5% CMC-Na aqueous solution was defined as 100, and relative values thereto were used.

| SMILES | Significant difference (p < 0.05) vs control group, plasma active GLP-1 level (Table 12, Experiment 7) | Plasma active GLP-1 level (relative value to control group as 100), average value (Table 12, Experiment 7) | Significant difference (p < 0.05) vs control group, plasma active GLP-1 level (Table 13, Experiment 8) | Plasma active GLP-1 level (relative value to control group as 100), average value (Table 13, Experiment 8) | further results |
| --- | --- | --- | --- | --- | --- |
| O=C(O)CC[C@@H]1NC(=O)[C@H](Cc2ccc(O)cc2)NC1=O [compound 87, Cyclo(Glu-Tyr)] | No | 141 | – | – | – |
| CC(C)[C@@H]1NC(=O)[C@H](Cc2ccc(O)cc2)NC1=O [compound 88, cyclo-valyl-tyrosine] | Yes | 385 | – | – | – |
| CCC(C)C1NC(=O)C(Cc2ccc(O)cc2)NC1=O (stereo not shown) [compound 89, Cyclo(Ile-Tyr)] | No | 222 | – | – | – |
| C[C@@H](O)[C@@H]1NC(=O)[C@H](Cc2ccc(O)cc2)NC1=O [compound 90, cyclo-threonyl-tyrosine] | Yes | 466 | – | – | – |
| O=C(O)C[C@@H]1NC(=O)[C@H](Cc2ccc(O)cc2)NC1=O [compound 91, Cyclo(Asp-Tyr)] | No | 181 | – | – | – |
| NC(=O)C[C@@H]1NC(=O)[C@H](Cc2ccc(O)cc2)NC1=O [compound 92, Cyclo(Asn-Tyr)] | No | 181 | – | – | – |
| NC(=O)CC[C@@H]1NC(=O)[C@H](Cc2ccc(O)cc2)NC1=O [compound 93, cyclo-glutaminyl-tyrosine] | Yes | 344 | – | – | – |
| N=C(N)NCCCC1NC(=O)C(Cc2ccc(O)cc2)NC1=O (stereo not shown) [compound 94, Cyclo(Arg-Tyr)] | No | 222 | – | – | – |
| CC(C)C[C@@H]1NC(=O)[C@H](Cc2cnc[nH]2)NC1=O [compound 103, Cyclo(His-Leu)] | – | – | No | 94 | – |
| CC(C)CC1NC(=O)C(C(C)O)NC1=O (stereo not shown) [compound 105, Cyclo(Thr-Leu)] | – | – | No | 94 | – |
| CC(C)CC1NC(=O)C(CC(N)=O)NC1=O (stereo not shown) [compound 106, Cyclo(Asn-Leu)] | – | – | No | 94 | – |
| CC(C)C1NC(=O)C(Cc2cnc[nH]2)NC1=O (stereo not shown) [compound 108, Cyclo(Val-His)] | – | – | No | 118 | – |
| CC(C)C1NC(=O)C(CCC(=O)O)NC1=O (stereo not shown) [compound 118, Cyclo(Val-Glu)] | – | – | No | 112 | – |
| CCC(C)C1NC(=O)C(CCSC)NC1=O (stereo not shown) [compound 119, Cyclo(Met-Ile)] | – | – | No | 106 | – |
| CSCCC1NC(=O)C(Cc2cnc[nH]2)NC1=O (stereo not shown) [compound 120, cyclo-methionyl-histidine] | – | – | Yes | 154 | – |
| CC1NC(=O)C(C(C)C)NC1=O (stereo not shown) [compound 122, Cyclo(Val-Ala)] | – | – | No | 94 | – |
| CCC(C)C1NC(=O)C(C)NC1=O (stereo not shown) [compound 123, Cyclo(Ile-Ala)] | – | – | – | – | Significant difference (p < 0.05) vs control group, plasma active GLP-1 level (Table 14, Experiment 9): No; Plasma active GLP-1 level (relative value to control group as 100), average value (Table 14, Experiment 9): 120 |
| CSCCC1NC(=O)C(C)NC1=O (stereo not shown) [compound 125, cyclo-methionyl-alanine] | – | – | – | – | Significant difference (p < 0.05) vs control group, plasma active GLP-1 level (Table 14, Experiment 9): Yes |
| CSCC[C@@H]1NC(=O)CNC1=O [compound 127, cyclo-methionyl-glycine] | – | – | – | – | Significant difference (p < 0.05) vs control group, plasma active GLP-1 level (Table 14, Experiment 9): Yes; Plasma active GLP-1 level (relative value to control group as 100), average value (Table 14, Experiment 9): 124 |
| CC(C)C1NC(=O)C(CO)NC1=O (stereo not shown) [compound 132, cyclo-valyl-serine] | – | – | – | – | Significant difference (p < 0.05) vs control group, plasma active GLP-1 level (Table 14, Experiment 9): Yes; Plasma active GLP-1 level (relative value to control group as 100), average value (Table 14, Experiment 9): 129 |
| CC[C@H](C)[C@@H]1NC(=O)[C@H](CO)NC1=O [compound 133, cyclo-isoleucyl-serine] | – | – | – | – | Significant difference (p < 0.05) vs control group, plasma active GLP-1 level (Table 14, Experiment 9): Yes |
